Test systems include TK-10 renal; UACC-257 melanoma; NCI-H226 lung; OVCAR-5 ovarian; BT-549 breast; SK-MEL-5 melanoma; HS 578T breast; RXF 393 renal; HT29 colon; NCI-H460 lung.
Test in all cases: growth of human tumour cells (NCI), 48 h

SMILES strings stand for the structures. Several values for one entry are separate records, joined by “and”; a condition that tells them apart may be missing. Equal values may be shown once.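 Grown in 96-well plates, cells were treated for 48 hours with each compound at five concentrations. Insufficient inhibition: endpoint recorded as highest concentration tested. The concentration for 50% growth inhibition is given as GI50. TGI is the concentration that stops growth completely.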

In the case of `C#CCOc1ccc2ncnc(Nc3ccc(NC(=O)C=C)cc3)c2c1`, the GI50 in the test with TK-10 renal is 2.62 µM; with UACC-257 melanoma it was 56.9 µM; in the test with NCI-H226 lung, more than 100 µM; in the test on OVCAR-5 ovarian it was more than 100 µM; in the test with BT-549 breast, 39.3 µM; in the test with SK-MEL-5 melanoma, more than 100 µM. The GI50 in the test with HS 578T breast was 62 µM; in the test on RXF 393 renal it was 15.2 µM; in the test on HT29 colon it was 30.6 µM; with NCI-H460 lung, more than 100 µM. The TGI in the test on TK-10 renal was 9.03 µM; with UACC-257 melanoma, more than 100 µM; with NCI-H226 lung, more than 100 µM; in the test on OVCAR-5 ovarian, more than 100 µM; with BT-549 breast it was more than 100 µM; in the test with SK-MEL-5 melanoma, more than 100 µM. The TGI is more than 100 µM with HS 578T breast, 58.8 µM in the test on RXF 393 renal, more than 100 µM in the test on HT29 colon and more than 100 µM in the test on NCI-H460 lung.

As to `O=[N+]([O-])c1cccc(C2CC(c3ccccc3)=Nc3ccccc3S2)c1` (stereo not given), the GI50 was 22.1 µM with TK-10 renal; 21.6 µM in the test on UACC-257 melanoma; 72.4 µM in the test on NCI-H226 lung; 13.9 µM with OVCAR-5 ovarian; 13.2 µM with BT-549 breast; 15.9 µM with SK-MEL-5 melanoma. Also, the GI50 in the test on HS 578T breast was 20 µM; with RXF 393 renal, 17.2 µM; in the test with HT29 colon, 8.25 µM; in the test on NCI-H460 lung, 20.5 µM. The TGI is 42.2 µM in the test with TK-10 renal; 61 µM in the test on UACC-257 melanoma; more than 100 µM in the test with NCI-H226 lung; 28.1 µM with OVCAR-5 ovarian; 26.7 µM with BT-549 breast; 29.6 µM with SK-MEL-5 melanoma. For the same compound, the TGI in the test on HS 578T breast is more than 100 µM; in the test on RXF 393 renal, 36.6 µM; in the test on HT29 colon it was 24.3 µM; in the test with NCI-H460 lung it was 48.7 µM.

Regarding `CSc1ccc2c(c1)C(N1CCN(C)CC1)Cc1ccccc1S2` (stereo not given), the GI50 was 1.84 µM with TK-10 renal; 1.54 µM in the test with UACC-257 melanoma; 1.8 µM with NCI-H226 lung; 1.95 µM in the test with OVCAR-5 ovarian; 2.84 µM in the test with BT-549 breast; 1.56 µM in the test with SK-MEL-5 melanoma. Also, the GI50 in the test with HS 578T breast is 2.51 µM; in the test with RXF 393 renal, 1.54 µM; in the test on HT29 colon it was 1.8 µM; in the test with NCI-H460 lung, 1.74 µM. Further, the TGI in the test with TK-10 renal is 12.8 µM and 3.41 µM; in the test with UACC-257 melanoma, 5.43 µM and 3.03 µM; in the test on NCI-H226 lung it was 24.9 µM and 3.94 µM; in the test on OVCAR-5 ovarian, 7.25 µM and 3.67 µM; with BT-549 breast, 17.6 µM and 9.3 µM; in the test with SK-MEL-5 melanoma it was 3.53 µM and 2.9 µM. Further, the TGI in the test with HS 578T breast was 15.9 µM and 10.9 µM; in the test on RXF 393 renal it was 14 µM and 3.39 µM; in the test on HT29 colon it was 6.84 µM and 3.65 µM; in the test with NCI-H460 lung, 7.12 µM and 3.45 µM.

Turning to `O=C(CC(Cl)=C(Cl)Cl)c1cccc(Cl)c1Cl`, the GI50 with TK-10 renal was 28.2 µM; in the test with UACC-257 melanoma it was more than 100 µM; in the test on NCI-H226 lung it was 75.1 µM; with OVCAR-5 ovarian it was more than 100 µM; with BT-549 breast, 70.6 µM; with SK-MEL-5 melanoma, more than 100 µM. Also, the GI50 in the test with HS 578T breast is more than 100 µM; in the test with RXF 393 renal it was more than 100 µM; in the test on HT29 colon, 75.4 µM; with NCI-H460 lung, more than 100 µM. In addition, the TGI in the test on TK-10 renal, with UACC-257 melanoma, in the test with NCI-H226 lung, in the test on OVCAR-5 ovarian, in the test with BT-549 breast and in the test on SK-MEL-5 melanoma was more than 100 µM in each case. Moreover, the TGI in the test with HS 578T breast, in the test with RXF 393 renal, in the test with HT29 colon and in the test on NCI-H460 lung was more than 100 µM in each case.

Turning to `N#CC1c2ccccc2C=CN1C(=O)N(c1ccccc1)c1ccccc1` (stereo not given), the GI50 in the test with TK-10 renal was 1.89 µM; with UACC-257 melanoma, 2.29 µM; with NCI-H226 lung, 3.76 µM; with OVCAR-5 ovarian, 7.45 µM; in the test on BT-549 breast it was 8.68 µM; in the test on SK-MEL-5 melanoma it was 4.03 µM. In addition, the GI50 in the test on HS 578T breast was 3.14 µM; in the test with RXF 393 renal, 1.73 µM; with HT29 colon, 3.56 µM; with NCI-H460 lung it was 15.9 µM. Moreover, the TGI in the test on TK-10 renal worked out at 3.58 µM; in the test with UACC-257 melanoma, 6.2 µM; with NCI-H226 lung, 15.2 µM; with OVCAR-5 ovarian, 24.3 µM; in the test with BT-549 breast, 21.2 µM; in the test on SK-MEL-5 melanoma it was 14.8 µM. In addition, the TGI came to 13.7 µM in the test with HS 578T breast, 3.2 µM with RXF 393 renal, 11.5 µM with HT29 colon and 34.2 µM in the test with NCI-H460 lung.

As to `O=C(Nc1nc2ccccc2s1)Nc1ccc([N+](=O)[O-])cc1Cl`, the GI50 was 3.18 µM with TK-10 renal; 5.62 µM with UACC-257 melanoma; 5.58 µM with NCI-H226 lung; 10.4 µM in the test on OVCAR-5 ovarian; 2.04 µM in the test on BT-549 breast; 7.3 µM in the test on SK-MEL-5 melanoma. The GI50 in the test with HS 578T breast is 3.98 µM; in the test with RXF 393 renal it was 1.59 µM; in the test with HT29 colon, 7.3 µM; in the test on NCI-H460 lung it was 2.42 µM. Moreover, the TGI in the test with TK-10 renal was found to be 7.87 µM; in the test on UACC-257 melanoma, 14.2 µM; in the test on NCI-H226 lung it was 13.1 µM; in the test with OVCAR-5 ovarian, 25.7 µM; in the test with BT-549 breast it was 7.68 µM; in the test on SK-MEL-5 melanoma, 22.1 µM. Moreover, the TGI in the test with HS 578T breast is more than 20.8 µM; in the test with RXF 393 renal, 3.28 µM; with HT29 colon, 21.9 µM; in the test on NCI-H460 lung, 6.81 µM.

Regarding `COC(=O)[C@H]1CCCN1C(=O)[C@H]1CCCN1C(=O)[C@H](Cc1c[nH]c2ccccc12)NC(=S)Nc1cc(C(F)(F)F)cc(C(F)(F)F)c1`, the GI50 in the test on TK-10 renal was 12.7 µM; with UACC-257 melanoma it was 5.87 µM; in the test with NCI-H226 lung it was 9.63 µM; with OVCAR-5 ovarian it was 2.95 µM; in the test with BT-549 breast it was 8.74 µM; in the test on SK-MEL-5 melanoma, 5.14 µM. The GI50 with HS 578T breast is 6.1 µM; with RXF 393 renal, 1.84 µM; in the test on HT29 colon it was 2.95 µM; in the test with NCI-H460 lung, 3.46 µM. Moreover, the TGI in the test with TK-10 renal was more than 100 µM; with UACC-257 melanoma it was more than 100 µM; in the test on NCI-H226 lung it was more than 100 µM; with OVCAR-5 ovarian, 26.8 µM; with BT-549 breast, 46 µM; with SK-MEL-5 melanoma it was more than 100 µM. For the same compound, the TGI is more than 100 µM in the test with HS 578T breast, 4.71 µM in the test with RXF 393 renal, 8.72 µM in the test on HT29 colon and more than 100 µM in the test on NCI-H460 lung.
